{"source": "patent US8193343B2", "about": "“Manufacture and products thereof of photosensitizing nanomaterials and their use in photodynamic treatment” (Westfalische Wilhelms-Universitat Munster, priority 2009, dated 2012)", "test": "phosphorescence of singlet oxygen (near IR emission spectrum)", "conditions": "in CD2Cl2 at room temperature, λexc=670 nm", "description": "The spectrum was recorded from a suspension of the photosensitizing nanomaterial in CD2Cl2 at room temperature, λexc=670 nm.\nThe singlet oxygen ^1O2 is produced by reaction of triplet oxygen (^3O2) with the monomeric form of the silicon (IV) phthalocyanine chloride complex, which is present on the surface of the zeolite L crystals, according to an example of the present disclosure. The generation of the singlet oxygen ^1O2 was investigated by measuring the near IR emission spectrum of the photosensitizing nanomaterials 40 in a suspension with deuteriated dichloromethane as the solvent (CD2Cl2). […] No characteristic phosphorescence can be detected.\nFluorescence emission and excitation spectra of the photosensitizing nanomaterial 40 suspended in CH2Cl2 were recorded by using a HORIBA Jobin-Yvon IBH FL-322 Fluorolog 3 spectrometer. The phosphorescence spectrum of ^1O2 in CD2Cl2 was recorded by using a HORIBA Jobin-Yvon IBH FL-322 Fluorolog 3 spectrometer equipped with an air-cooled Hamamatsu H9170-75 (InP/InGaAs) PMT detector."}
{"smiles": "Cl[Si]1(Cl)n2c3c4ccccc4c2N=C2N=C(N=c4c5ccccc5c(n41)=NC1=NC(=N3)c3ccccc31)c1ccccc12", "note": "[silicon (IV) phthalocyanine chloride, Si(IV) phthalocyanine dichloride]", "values": [{"measurement": "generation of singlet oxygen (1O2), characteristic phosphorescence", "result": "does not show any generation of the singlet oxygen"}]}
